Results published in patent US8822754B2, “Ecdysone receptor-based inducible gene expression system” (Intrexon Corporation, priority 2000, dated 2014).

How the values were obtained:
[1] = molecular target: T1, GAL4RXR + VP16DmEcR (Drosophila melanogaster, UniProt P34021); test: Transactivation of reporter genes through switch 1.4 in CV1 cells; assay type: cell-based; set-up: expressed in transfected cells; host or cells: CV1 cells (transient co-transfection); conditions: switch 1.4 GAL4RXR + VP16DmEcR, pGAL4RELuc
T1 sequence (P34021 254-878): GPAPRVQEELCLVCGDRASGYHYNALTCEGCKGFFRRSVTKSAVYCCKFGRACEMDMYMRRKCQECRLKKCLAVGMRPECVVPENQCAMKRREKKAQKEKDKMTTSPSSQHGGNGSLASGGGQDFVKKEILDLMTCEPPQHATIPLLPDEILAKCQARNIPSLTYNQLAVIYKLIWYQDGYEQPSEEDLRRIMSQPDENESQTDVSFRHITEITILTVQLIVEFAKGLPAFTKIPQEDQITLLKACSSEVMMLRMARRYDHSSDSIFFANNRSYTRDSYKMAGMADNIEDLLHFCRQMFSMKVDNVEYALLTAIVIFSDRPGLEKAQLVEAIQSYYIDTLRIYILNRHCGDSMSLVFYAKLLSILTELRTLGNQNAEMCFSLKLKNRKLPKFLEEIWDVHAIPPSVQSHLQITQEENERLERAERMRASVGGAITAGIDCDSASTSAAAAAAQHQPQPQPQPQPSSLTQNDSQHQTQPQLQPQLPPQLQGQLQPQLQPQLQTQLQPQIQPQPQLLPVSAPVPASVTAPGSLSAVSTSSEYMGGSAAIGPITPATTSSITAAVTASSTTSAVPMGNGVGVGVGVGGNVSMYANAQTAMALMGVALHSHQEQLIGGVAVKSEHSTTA
T1 sequence (P28700 206-467 partner limits assumed): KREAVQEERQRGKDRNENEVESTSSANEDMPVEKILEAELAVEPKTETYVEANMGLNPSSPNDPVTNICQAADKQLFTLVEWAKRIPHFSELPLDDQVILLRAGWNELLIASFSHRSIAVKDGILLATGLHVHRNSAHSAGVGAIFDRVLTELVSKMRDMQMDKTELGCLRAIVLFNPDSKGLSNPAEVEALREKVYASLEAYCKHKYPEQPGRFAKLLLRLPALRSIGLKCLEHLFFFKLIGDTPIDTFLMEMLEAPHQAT
Description: This construct was prepared in the same way as switch 1.3 except CfEcRCDEF was replaced with DmEcRCDEF (SEQ ID NO: 6).
(§1) The same procedures described for NIH3T3 cells were followed for CV1 cells
(§2) Cells were harvested 24-48 hr after adding ligands. […] Twenty μl of lysate was assayed.

[2] = system: CfVgRXR; test: Transactivation of reporter genes through switch 1.10 in 3T3 cells; assay type: cell-based, Choristoneura fumiferana; conditions: switch 1.10 CfVgRXR, pIND(SP1)LacZ
Description: This example was prepared in the same way as switch 1.9 except MmRXR (SEQ ID NO: 53) was deleted.
(§3) The cells were plated when they reached 50% confluency.
as §2

[3] = system: GAL4EcR + VP16RXR; test: Transactivation of reporter genes through switch 1.1 in 3T3 cells
Source text: In various cellular backgrounds, including mammalian cells, insect ecdysone receptor (EcR) heterodimerizes with retinoid X receptor (RXR) and, upon binding of ligand, transactivates genes under the control of ecdysone response elements. Applicants constructed several EcR-based gene expression cassettes based on the spruce budworm Choristoneura fumiferana EcR (“CfEcR”; full length polynucleotide and amino acid sequences are set forth in SEQ ID NO: 49 and SEQ ID NO: 50, respectively), C. fumiferana ultraspiracle (“CfUSP”; full length polynucleotide and amino acid sequences are set forth in SEQ ID NO: 51 and SEQ ID NO: 52, respectively), and mouse Mus musculus RXRα (MmRXRα; full length polynucleotide and amino acid sequences are set forth in SEQ ID NO: 53 and SEQ ID NO: 54, respectively). The prepared receptor constructs comprise a ligand binding domain of EcR and of RXR or of USP; a DNA binding domain of GAL4 or of EcR; and an activation domain of VP16. The reporter constructs include a reporter gene, luciferase or LacZ, operably linked to a synthetic promoter construct that comprises either GAL4 or EcR/USP binding sites (response elements). Various combinations of these receptor and reporter constructs were cotransfected into CHO, NIH3T3, CV1 and 293 cells. […] Reporter gene expression activities were assayed at 24 hr or 48 hr after ligand addition.
The same procedures described for CHO cells were followed for 3T3 cells as well with two modifications. The cells were plated when they reached 50% confluency. 125,000 or 50,000 or 25,000 cells were plated per well of 6- or 12- or 24-well plates respectively. The GAl4EcR/VP16RXR and reporter vector DNAs were transfected into NIH3T3 cells, the transfected cells were grown in medium containing PonA, MurA, N-(2-ethyl-3-methoxybenzoyl)-N′-(3,5-dimethylbenzoyl)-N′-t-butylhydrazine, or N-(3,4-(1,2-ethylenedioxy)-2-methylbenzoyl)-N′-(3,5-dimethylbenzoyl)-N′-tert-butylhydrazine for 48 hr. The ligand treatments were performed as described in the CHO cell section above.
Cells were harvested 24-48 hr after adding ligands. 125, 250, or 500 μl of passive lysis buffer (part of Dual-luciferase™ reporter assay system from Promega Corporation) were added to each well of 24- or 12- or […] respectively. The plates were placed on a rotary shaker for 15 min. Twenty μl of lysate was assayed. Luciferase activity was measured using Dual-luciferase™ reporter assay system from Promega Corporation following the manufacturer's instructions. β-Galactosidase was measured using Galacto-Star™ assay kit from TROPIX following the manufacturer's instructions. All luciferase and β-galactosidase activities were normalized using Renilla luciferase as a standard. Fold activities were calculated by dividing normalized relative light units (“RLU”) in ligand treated cells with normalized RLU in DMSO treated cells (untreated control).

[4] = system: GAL4EcR + VP16USP; test: Transactivation of reporter genes through switch 1.2 in 3T3 cells; assay type: cell-based, Choristoneura fumiferana; conditions: switch 1.2 GAL4EcR + VP16USP, pGAL4RELuc
Description: (§4) This construct was prepared in the same way as in switch 1.1 above except MmRXRDEF was replaced with the D, E and F domains from spruce budworm USP (“CfUSPDEF”; SEQ ID NO: 58). The constructs used in this example are similar to those disclosed in U.S. Pat. No. 5,880,333 except that Choristoneura fumiferana USP rather than Drosophila melanogaster USP was utilized.
as §3, §2

[5] = system: GAL4EcR + VP16USP; test: Transactivation of reporter genes through switch 1.2 in CV1 cells; assay type: cell-based, Choristoneura fumiferana; conditions: switch 1.2 GAL4EcR + VP16USP, pGAL4RELuc
Description: as §4, §1, §2

CCc1c(OC)cccc1C(=O)NN(C(=O)c1cc(C)cc(C)c1)C(C)(C)C [N-(2-ethyl-3-methoxybenzoyl)-N′-(3,5-dimethylbenzoyl)-N′-tert-butylhydrazine]
Mean Fold Activation Through N-(2-ethyl-3-methoxybenzoyl)-N′-(3,5-dimethylbenzoyl)-N′-t-butylhydrazine [1]: 80 fold
Mean Fold Activation Through N-(2-ethyl-3-methoxybenzoyl)-N′-(3,5-dimethylbenzoyl)-N′-t-butylhydrazine [2]: 2 fold
Mean Fold Induction at 1.0 μM Concentration ([3]; GAL4CfEcRDEF/VP16MmRXRDEF (switch 1.1), 1.0 μM ligand, 48 hr): 116 fold
Mean Fold Activation Through N-(2-ethyl-3-methoxybenzoyl)-N′-(3,5-dimethylbenzoyl)-N′-t-butylhydrazine ([3]; switch 1.1 GAL4EcR + VP16RXR, pGAL4RELuc): 1118 fold
Mean Fold Activation Through N-(2-ethyl-3-methoxybenzoyl)-N′-(3,5-dimethylbenzoyl)-N′-t-butylhydrazine [4]: 2 fold
Mean Fold Activation Through N-(2-ethyl-3-methoxybenzoyl)-N′-(3,5-dimethylbenzoyl)-N′-t-butylhydrazine [5]: 2 fold
